Results as given in PubChem BioAssay AID1963871 (Molecular Pharmacology Branch, DTP, NCI, 2024).

Test system: KRAS-mutant PDC multicell tumor spheroid viability
Assay: Anticancer human tumor 521955-158-R2-J5-PDC patient-derived pancreatic carcinoma cell line growth inhibition [KRAS2]
Conditions: for IC50: curve of first compound; for viability, T/C: stronger effect = lower value
How it was run: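 Combination screen of spheroid viability in tumor-cell co-cultures with endothelial (HUVEC) and mesenchymal stem cell stroma. Each agent was tested in half-log dilutions, topping at clinical Cmax or at 10 microM without a known Cmax.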

[1] = second compound 0.0316 µM, first compound 0.0316 µM
[2] = second compound 0.0316 µM, first compound 0.1 µM
[3] = second compound 0.0316 µM, first compound 0.316 µM
[4] = second compound 0.0316 µM, first compound 1 µM
[5] = second compound 0.0316 µM, first compound 3.16 µM
[6] = second compound 0.0316 µM, first compound 10 µM
[7] = second compound 0.1 µM, first compound 0.0316 µM
[8] = second compound 0.1 µM, first compound 0.1 µM
[9] = second compound 0.1 µM, first compound 0.316 µM
[10] = second compound 0.1 µM, first compound 1 µM
[11] = second compound 0.1 µM, first compound 3.16 µM
[12] = second compound 0.1 µM, first compound 10 µM
[13] = second compound 0.316 µM, first compound 0.0316 µM
[14] = second compound 0.316 µM, first compound 0.1 µM
[15] = second compound 0.316 µM, first compound 0.316 µM
[16] = second compound 0.316 µM, first compound 1 µM
[17] = second compound 0.316 µM, first compound 3.16 µM
[18] = second compound 0.316 µM, first compound 10 µM
[19] = second compound 1 µM, first compound 0.0316 µM
[20] = second compound 1 µM, first compound 0.1 µM
[21] = second compound 1 µM, first compound 0.316 µM
[22] = second compound 1 µM, first compound 1 µM
[23] = second compound 1 µM, first compound 3.16 µM
[24] = second compound 1 µM, first compound 10 µM
[25] = second compound 3.16 µM, first compound 0.0316 µM
[26] = second compound 3.16 µM, first compound 0.1 µM
[27] = second compound 3.16 µM, first compound 0.316 µM
[28] = second compound 3.16 µM, first compound 1 µM
[29] = second compound 3.16 µM, first compound 3.16 µM
[30] = second compound 3.16 µM, first compound 10 µM
[31] = second compound 0.0316 µM, first compound 0.01 µM
[32] = second compound 0.1 µM, first compound 0.01 µM
[33] = second compound 0.316 µM, first compound 0.01 µM
[34] = second compound 1 µM, first compound 0.01 µM
[35] = second compound 3.16 µM, first compound 0.01 µM
[36] = second compound 0.0316 µM, first compound 0.00316 µM
[37] = second compound 0.1 µM, first compound 0.00316 µM
[38] = second compound 0.316 µM, first compound 0.00316 µM
[39] = second compound 1 µM, first compound 0.00316 µM
[40] = second compound 3.16 µM, first compound 0.00316 µM
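Further: viability read after seven days of drug exposure.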

| Structure (SMILES) | IC50 (second compound 0.0316 µM) | IC50 (second compound 0.1 µM) | IC50 (second compound 0.316 µM) | IC50 (second compound 1 µM) | IC50 (second compound 3.16 µM) | viability, T/C [1] | viability, T/C [2] | viability, T/C [3] | viability, T/C [4] | viability, T/C [7] | viability, T/C [8] | viability, T/C [9] | viability, T/C [10] | viability, T/C [13] | viability, T/C [14] | viability, T/C [15] | viability, T/C [19] | viability, T/C [20] | viability, T/C [25] | viability, T/C [26] | other results |
| --- | --- | --- | --- | --- | --- | --- | --- | --- | --- | --- | --- | --- | --- | --- | --- | --- | --- | --- | --- | --- | --- |
| CC(C)NCC(C(=O)N1CCN(c2ncnc3c2C(C)CC3O)CC1)c1ccc(Cl)cc1 (stereo not given) + C=CC(=O)N1CCN(c2nc(OCC3CCCN3C)nc3c2CCN(c2cccc4cccc(C)c24)C3)CC1CC#N | > 10 µM | > 10 µM | > 10 µM | > 10 µM | < 0.0316 µM | 108% | 110% | 84.5% | 87.1% | 103% | 103% | 84.5% | 83.6% | 97.5% | 92.3% | 76.2% | 81.6% | 80.4% | 12.2% | 14.6% | viability, T/C [5]: 92.3%; viability, T/C [6]: 65.8%; viability, T/C [11]: 79.6%; viability, T/C [12]: 59.8%; viability, T/C [16]: 73.5%; viability, T/C [17]: 75.4%; viability, T/C [18]: 52.1%; viability, T/C [21]: 65.8%; viability, T/C [22]: 59.2%; viability, T/C [23]: 62.3%; viability, T/C [24]: 50.6%; viability, T/C [27]: 17%; viability, T/C [28]: 11.6%; viability, T/C [29]: 3.96%; viability, T/C [30]: 1.11% |
| CC1(C)CCC(CN2CCN(c3ccc(C(=O)NS(=O)(=O)c4ccc(NCC5CCOCC5)c([N+](=O)[O-])c4)c(Oc4cnc5[nH]ccc5c4)c3)CC2)=C(c2ccc(Cl)cc2)C1 + C=CC(=O)N1CCN(c2nc(OCC3CCCN3C)nc3c2CCN(c2cccc4cccc(C)c24)C3)CC1CC#N | 4.89 µM | 4.63 µM | 2.01 µM | 1.68 µM | < 0.0316 µM | 108% | 101% | 105% | 111% | 97.7% | 100% | 99.9% | 104% | 88.5% | 97.4% | 100% | 85.6% | 89.5% | 10.6% | 8.43% | viability, T/C [5]: 77.7%; viability, T/C [6]: 4.79%; viability, T/C [11]: 72.9%; viability, T/C [12]: 4.13%; viability, T/C [16]: 103%; viability, T/C [17]: 19.3%; viability, T/C [18]: 4.17%; viability, T/C [21]: 84.6%; viability, T/C [22]: 81.7%; viability, T/C [23]: 11.3%; viability, T/C [24]: 1.35%; viability, T/C [27]: 5.9%; viability, T/C [28]: 1.39%; viability, T/C [29]: 0.22%; viability, T/C [30]: 0.27% |
| CC1COCCN1c1cc(-c2ccnn2C)c2ccnc(-c3ccn[nH]3)c2n1 (stereo not given) + C=CC(=O)N1CCN(c2nc(OCC3CCCN3C)nc3c2CCN(c2cccc4cccc(C)c24)C3)CC1CC#N | 0.0306 µM | 0.0296 µM | 0.0229 µM | 0.017 µM | < 0.01 µM | 48.6% | 10.9% | 13.4% | 21.8% | 46.4% | 9.45% | 13.1% | 21.9% | 32% | 7.93% | 11.4% | 17.8% | 5.2% | 6.36% | 4.26% | viability, T/C [31]: 95.8%; viability, T/C [5]: 27.5%; viability, T/C [32]: 109%; viability, T/C [11]: 26.9%; viability, T/C [33]: 96%; viability, T/C [16]: 19.9%; viability, T/C [17]: 27.3%; viability, T/C [34]: 77.8%; viability, T/C [21]: 9.79%; viability, T/C [22]: 17.1%; viability, T/C [23]: 21.1%; viability, T/C [35]: 10.7%; viability, T/C [27]: 6.86%; viability, T/C [28]: 11%; viability, T/C [29]: 15.3% |
| CCN1CCN(Cc2ccc(Nc3ncc(F)c(-c4cc(F)c5nc(C)n(C(C)C)c5c4)n3)nc2)CC1 + C=CC(=O)N1CCN(c2nc(OCC3CCCN3C)nc3c2CCN(c2cccc4cccc(C)c24)C3)CC1CC#N | > 1 µM | > 1 µM | > 1 µM | > 1 µM | < 0.00316 µM | 91.8% | 85.9% | 110% | 83.6% | 87.5% | 95.8% | 106% | 84.8% | 90% | 72.3% | 104% | 80.6% | 82.5% | 16% | 11.1% | viability, T/C [36]: 93.5%; viability, T/C [31]: 107%; viability, T/C [37]: 102%; viability, T/C [32]: 94.2%; viability, T/C [38]: 85.3%; viability, T/C [33]: 106%; viability, T/C [16]: 90%; viability, T/C [39]: 89.3%; viability, T/C [34]: 78.3%; viability, T/C [21]: 84.6%; viability, T/C [22]: 81.9%; viability, T/C [40]: 19.2%; viability, T/C [35]: 19.5%; viability, T/C [27]: 4.58%; viability, T/C [28]: 0.34% |
| CCNC(=O)CC1N=C(c2ccc(Cl)cc2)c2cc(OC)ccc2-n2c(C)nnc21 (stereo not given) + C=CC(=O)N1CCN(c2nc(OCC3CCCN3C)nc3c2CCN(c2cccc4cccc(C)c24)C3)CC1CC#N | 0.395 µM | 0.34 µM | 0.302 µM | 0.291 µM | < 0.0316 µM | 106% | 94.9% | 52.9% | 38% | 96.3% | 79.4% | 50.7% | 36% | 103% | 97.6% | 47.8% | 84.3% | 77% | 29.8% | 22% | viability, T/C [5]: 32.4%; viability, T/C [6]: 34.2%; viability, T/C [11]: 34.3%; viability, T/C [12]: 30.1%; viability, T/C [16]: 35.2%; viability, T/C [17]: 31.6%; viability, T/C [18]: 32.7%; viability, T/C [21]: 48.1%; viability, T/C [22]: 30.1%; viability, T/C [23]: 28.1%; viability, T/C [24]: 29.4%; viability, T/C [27]: 22.2%; viability, T/C [28]: 0.29%; viability, T/C [29]: 14.3%; viability, T/C [30]: 11.2% |
| Cn1ncnc1[C@H]1c2n[nH]c(=O)c3cc(F)cc(c23)N[C@@H]1c1ccc(F)cc1 + C=CC(=O)N1CCN(c2nc(OCC3CCCN3C)nc3c2CCN(c2cccc4cccc(C)c24)C3)CC1CC#N | > 0.1 µM | > 0.1 µM | > 0.1 µM | > 0.1 µM | < 0.000316 µM | 91.6% | 82.5% |  |  | 81.3% | 77.6% |  |  | 75% | 66.5% |  | 67.4% | 62.7% | 9.22% | 8.81% | viability, T/C (second compound 0.0316 µM, first compound 0.000316 µM): 111%; viability, T/C (second compound 0.0316 µM, first compound 0.001 µM): 114%; viability, T/C [36]: 103%; viability, T/C [31]: 81.4%; viability, T/C (second compound 0.1 µM, first compound 0.000316 µM): 104%; viability, T/C (second compound 0.1 µM, first compound 0.001 µM): 96.9%; viability, T/C [37]: 86.9%; viability, T/C [32]: 85.5%; viability, T/C (second compound 0.316 µM, first compound 0.000316 µM): 99.6%; viability, T/C (second compound 0.316 µM, first compound 0.001 µM): 94.4%; viability, T/C [38]: 93.9%; viability, T/C [33]: 72.3%; viability, T/C (second compound 1 µM, first compound 0.000316 µM): 78.3%; viability, T/C (second compound 1 µM, first compound 0.001 µM): 82.7%; viability, T/C [39]: 78.5%; viability, T/C [34]: 69.2%; viability, T/C (second compound 3.16 µM, first compound 0.000316 µM): 15.8%; viability, T/C (second compound 3.16 µM, first compound 0.001 µM): 10.9%; viability, T/C [40]: 10.7%; viability, T/C [35]: 8.52% |
